Tests used:
[1] = system: PLC (phosphatidyl choline-phospholipase C); conditions: literature; cited from earlier work
[2] = system: human cortical neurons; experiment: Compound toxicity to human cortical neurons in absence of Aβ1-40 (alamarBlue, 3 days); format: cell-based
Description: (§1) Cultures of human cortical or hippocampal neurons were prepared using a modification of the procedure described in P. Seubert et al. (1992), Nature 359:325-327. Cortical or hippocampal tissue was dissociated by incubation in a trypsin/EDTA solution (0.05% trypsin +0.53 mM EDTA in HBSS; Gibco) for 20 minutes at 37° C. The trypsin was then inactivated by resuspending the cells in serum-containing medium (MEM/FBS): Modified Eagle's Medium (MEM) containing 1% glucose, 1 mM sodium pyruvate, 1 mM glutamine, and supplemented with 10% fetal bovine serum (Gibco). Cells were then pelleted by centrifugation and resuspended in a chemically-defined medium (MEM/B27): MEM containing B27 supplement (Gibco) in place of FBS. Polyethyleneimine (PEI)-coated 6.4-mm (96-well) dishes were rinsed once with MEM/FBS, and then seeded at 0.75-1.25×10^5 cells per well in 0.1 ml MEM/B27. Cultures were maintained in a H2 O-saturated incubator with an atmosphere of 95% air/5% CO2 at 37° C. The culture medium was exchanged twice weekly.
(§2) The alamarBlue™ assay incorporated a proprietary fluorometric/colorimetric metabolic indicator (Alamar Biosciences, Inc.). Viable cells convert alamarBlue™ from an oxidized (non-fluorescent, blue) form to a reduced (fluorescent, red) form. Assays were performed by replacing the culture media with a 10% alamarBlue™ solution in DMEM (rat cortical cultures) or MEM (human cortical cultures). Reduction of alamarBlue™ was determined spectrofluorometrically using a Millipore Cytofluor 2350 Scanner (excitation, […]; emission, 590 nm) and CytoCalc™ software (Millipore Corporation).
(§3) Human cortical neurons were treated with 50 μM Aβ1-40 and various inhibitors of PLA2 or PLC. Compounds were added at the time of Aβ1-40 treatment at concentrations 390 nM to 100 μM. Compounds were also added to neuronal cultures in the absence of Aβ1-40. Neuronal survival was determined after 3 days of treatment by alamarBlue®. IC50 is the dose of compound that inhibited Aβ-mediated neurotoxicity by 50%. […] Data represents the mean ± SD (n=3). ND, not detected at the concentration range used.

[3] = as above; format: cell-based; conditions: human, cortical neurons
Description: as §1, §2, §3

[4] = system: human cortical neurons; experiment: Aβ neurotoxicity / survival of human cortical neurons (alamarBlue), compound added at time of Aβ1-40; format: cell-based; conditions: for Max Inh: 50 μM Aβ1-40, compound 390 nM to 100 μM added at time of Aβ, 3 days, n=3
Description: as §1
(§4) Amyloid-β (Aβ) stock solutions were prepared as 1 mM stocks in sterile ddH2 O immediately prior to addition to cultures. Rat cortical neurons were exposed to Aβ by removing the culture medium and replacing it with DMEM/N2 or DMEM/B27 containing Aβ1-40. Human cortical neurons were exposed to Aβ by removing the culture medium and replacing it with MEM, MEM/N2, or MEM/B27 containing Aβ1-40. Cultures were maintained for 2-4 days before neuronal survival was quantified using alamarBlue™.
as §2
The effect of the two benzenesulfonamide inhibitors of PLA2 in Example 2 were examined to determine the dose-dependence of their effect on neuronal survival in human cortical neuron cultures exposed to 0 μM, 25μM, or 50 μM of Aβ1-40 and varying doses of the benzenesulfonamide.
as §3

[5] = system: PLA2; conditions: literature; cited from earlier work
[6] = system: human cortical neurons; experiment: Compound toxicity to human cortical neurons in absence of Aβ1-40, added as in pretreatment protocol; format: cell-based; conditions: no Aβ1-40, 3 days, n=3
Description: as §1, §2
(§5) Human cortical neurons were treated with 50 μM Aβ1-40 and various inhibitors of PLA2. Compounds were added 2 hours prior to Aβ1-40 treatment at concentrations of 390 nM to 100 μM, and were then re-added at the time of Aβ1-40 treatment. Compounds were also added in an identical manner to neuronal cultures in the absence of Aβ1-40. Neuronal survival was determined after 3 days of treatment by alamarBlue®. IC50 is the dose of compound that inhibited Aβ-mediated neurotoxicity by 50%. […] Data represents the mean ± SD (n=3). ND, not detected at the concentration range used.

[7] = as above; format: cell-based; conditions: human, cortical neurons, no Aβ1-40, 3 days, n=3, ND = not detected at the concentration range used, read-out: TD50 (concentration giving 50% loss of neuronal survival)
Description: as §1, §2, §5

[8] = system: human cortical neurons; experiment: Aβ neurotoxicity in human cortical neurons (alamarBlue), 2 h pretreatment with inhibitor; format: cell-based; conditions: Homo sapiens, Cortical neurone, 72 h, read-out: Max Inh
Description: as §1, §4, §2
The effect of pretreating human cortical neuron cultures with the benzenesulfonamide PLA2 inhibitors and arachidonyl trifluoromethyl ketone prior to exposure to a neurotoxic concentration of Aβ1-40 was determined.
as §5

[9] = system: AD patients; conditions: selected group of five AD patients; cited from earlier work

Row | Compound | inhibition of PLC [1] | Max Inh [4] | TD10 (concentration giving 10% loss of neuronal survival) [6] | CC50 at 72 h [7] | Emax [8] | further results
1 | COc1ccc2c(c1)CC[C@@H]1[C@@H]2CC[C@]2(C)[C@@H](NCCCCCCN3C(=O)C=CC3=O)CC[C@@H]12 [U73122, 1-[6-[[(17β)-3-methoxyestra-1,3,5(10)-trien-17-yl]amino]hexyl]-1H-pyrrole-2,5-dione] | inhibits both PLA2 and PLC | 66% |  |  |  | TD10 (concentration giving 10% loss of neuronal survival) ([2]; no Aβ1-40, 3 days, 390 nM to 100 μM, n=3): 11 µM; CC50 at 72 h ([3]; no Aβ1-40, 3 days, 390 nM to 100 μM, n=3, ND = not detected at the concentration range used, read-out: TD50 (concentration giving 50% loss of neuronal survival)): 16 µM; IC50 ([4]; Homo sapiens, Cortical neurone, 72 h, read-out: IC50 (dose that inhibited Aβ-mediated neurotoxicity by 50%)): 9 µM; inhibition of PLA2 [5]: inhibits both PLA2 and PLC
2 | CC1=C(CC/C(C)=C/CCC2=CC[C@H](C3=CC(=O)O[C@H]3O)O[C@H]2O)C(C)(C)CCC1 [Manoalide] |  |  | 8 µM | 10 µM | 49% | 
3 | COc1ccc2c(c1)c(CC(=O)O)c(C)n2C(=O)c1ccc(Cl)cc1 [indomethacin] |  |  |  |  |  | effects on neuropathological progression [9]: no effects on neuropathological progression were noted; reducing symptomatic progression in AD patients [9]: allegedly useful in reducing symptomatic progression
4 | O=C(CBr)c1ccc(Br)cc1 [p-Bromophenacyl Bromide] |  |  | 8 µM | 10 µM | 39% | 
5 | S=C(S)OC1CC2CC1C1CCCC21 (stereo not shown) [AN20602, potassium 8(9)-tricyclo[5.2.1.0^2,6]decyl xanthate] | PLC inhibitor | 25% |  |  |  | TD10 (concentration giving 10% loss of neuronal survival) ([2]; human, 4320 min): 13 µM; CC50 at 72 h [3]: 35 µM; enhancing neuronal survival after exposure to Aβ (in words) ([4]; Example 5, FIG. 5, three days): relatively ineffective in enhancing neuronal survival

Reference: patent US5707821A, “Identification of phospholipase A2 inhibitors in Aβ peptide-mediated neurodegenerative disease” (priority 1995, dated 1998)
